Measurements reported in the NIST ThermoML archive (doi:10.1007/s10765-006-0093-7).

Conditions: Gas, Hot wire method

[Ar] [argon]
Conditions | thermal conductivity [W/m/K]
304.8 K, 1020 kPa | 0.01821
304.8 K, 1560 kPa | 0.01835
304.8 K, 2320 kPa | 0.01869
304.8 K, 2590 kPa | 0.01877
304.8 K, 4470 kPa | 0.01959
329 K, 1200 kPa | 0.0193
329 K, 1270 kPa | 0.01953
329 K, 1960 kPa | 0.01978
329 K, 2340 kPa | 0.01995
329 K, 3030 kPa | 0.02016
329 K, 3630 kPa | 0.0203
329 K, 5980 kPa | 0.02118
329 K, 7320 kPa | 0.02192
360.05 K, 1240 kPa | 0.02086
360.05 K, 1560 kPa | 0.02098
360.05 K, 1640 kPa | 0.02104
360.05 K, 2240 kPa | 0.02129
360.05 K, 3200 kPa | 0.02158
360.05 K, 4160 kPa | 0.02192
360.05 K, 8720 kPa | 0.0239
389.3 K, 1390 kPa | 0.02227
389.3 K, 2140 kPa | 0.02255
389.3 K, 2780 kPa | 0.02276
389.3 K, 3330 kPa | 0.02288
389.3 K, 3560 kPa | 0.02304
389.3 K, 4190 kPa | 0.02323
389.3 K, 5350 kPa | 0.02353
389.3 K, 6050 kPa | 0.02385
389.3 K, 6660 kPa | 0.02405
389.3 K, 7500 kPa | 0.0243
389.3 K, 8260 kPa | 0.02466
389.3 K, 8500 kPa | 0.02463
417.5 K, 1210 kPa | 0.02336
417.5 K, 1400 kPa | 0.02343
417.5 K, 2110 kPa | 0.02369
417.5 K, 2740 kPa | 0.02395
417.5 K, 3420 kPa | 0.02415
417.5 K, 4130 kPa | 0.02432
417.5 K, 4800 kPa | 0.02459
417.5 K, 5470 kPa | 0.02478
417.5 K, 6180 kPa | 0.02504
417.5 K, 6890 kPa | 0.02521
417.5 K, 7580 kPa | 0.0256
417.5 K, 8270 kPa | 0.02577
475.7 K, 1090 kPa | 0.02562
475.7 K, 1410 kPa | 0.02575
475.7 K, 2120 kPa | 0.02608
475.7 K, 2790 kPa | 0.02636
475.7 K, 3520 kPa | 0.02652
475.7 K, 4250 kPa | 0.02683
475.7 K, 5010 kPa | 0.02692
475.7 K, 6100 kPa | 0.02742
475.7 K, 7980 kPa | 0.02789
